Reference: patent US20240198337A1, “Bone Marrow on a Chip” (NEW YORK UNIVERSITY, priority 2021, published 2024)

Tests used:
[1] = tested on: ETV6-RUNX1+ REH and Ph+ SUP-B15 human B-ALL cell lines; experiment: Chemo-resistance of engineered human B-ALL BM niches to increasing doses of vincristine (Leukemia-on-a-Chip); type: cell-based; details: B-ALL co-cultured with niche cells
Excerpt: FIG. 4A through FIG. 4G depicts modeling the leukemic bone marrow (BM) niche in a Leukemia-on-a-Chip platform. […] (FIG. 4C) The Hematoxylin and Eosin (H&E) staining image of the in vivo murine leukemic BM niche, with the enlarged area from showing the co-localization of B-ALL cells respectively within the perivascular and endosteal niches. (FIG. 4D) The chemo-resistance was compared between the engineered human BM niches of ETV6-RUNX1+ REH and Ph+ SUP-B15 B-ALL. Each drug concentration had >3 experimental replicates. (FIG. 4E) The cytokine profiles from two B-ALL blasts with and without niche cells were quantified using membrane-based ELISA analysis. (FIG. 4F) The quantification of nuclear (nuc)/cytoplasmic (cyto) ratio of NF-κB in REH and SUP B-ALL within their respective niche models. The ratios for REH and SUP were manually measured from 3 experimental replicates (N>150). […]
The outcome of drugs was defined by the viability of B-ALL cells as a cytotoxic end point after drug treatment. […] The cell viability was quantitatively determined by using Calcein-AM (Thermo Fischer Scientific) and DAPI, which respectively stained the live and dead cells. […] Afterward, cells were observed under a fluorescence microscope, and cellular viability was quantitatively measured by counting the number of objects in the green (live cells) and red (dead cells) channels. […]

REH B-ALL blasts = experiment: REH viability cultured with hematopoietic cells under VCR treatment; type: cell-based, human; details: 48 hr treatment of 20 nM VCR; co-culture with CD34+ HSPC-derived hematopoietic cells
Excerpt: FIG. 13A through FIG. 13L depict the results of niche cells functioning disparately to regulate leukemia progression. (FIG. 13A) Membrane-based ELISA analysis of CXCL12 secretion of ECs (Top left) and MSCs (Top right). Western blotting of CXCL12 expression of ECs (Bottom left) and MSCs (Bottom right). (FIG. 13B) VCAM-1 expression of ECs and the quantification result (N>200). (FIG. 13C) OPN expression of 2D cultured MSCs and the quantification result (N>200). (FIG. 13D) The correlation between distance of B-ALL to MSCs and dye retaining ability of B-ALL (N>120). B-ALL with lower DiD intensity was excluded as indicated by the dash line. (FIG. 13E) and (FIG. 13F) The flow cytometric images showing DiD dye retained in B-ALL, i.e. low (Lo), middle (Mid), and high (Hi) intensity. (FIG. 13G) The representative images showing p21 expression in B-ALL located in the perivascular and endosteal niches (N=54). (FIG. 13H) B-ALL viability in the two niches treated with different drugs. (FIG. 13I) NF-κB activation in REH after co-cultured with hematopoietic cells. […] (FIG. 13L) The quantified number of CD34+ cells. […]
The contributing mechanisms from hematopoietic cells was then investigated. […] Furthermore, healthy bone marrow mononuclear cells were cultured with and without REH blasts in the leukemia systems for day 1 and day 9 and the number of CD34+ cells was quantified. […]

murine Ph+ B-ALL cells = experiment: Drug resistance testing: B-ALL cell viability in 3D hydrogel devices (Calcein-AM/DAPI); type: cell-based; details: NIL 1 μM, PRE 1 μM, VCR 0.1 μM; for B-ALL drug-induced cell death (chemo-resistance): presence of niche cells
Protocol: The outcome of drugs was defined by the viability of B-ALL cells as a cytotoxic end point after drug treatment. B-ALL cells were cultured alone or co-cultured with niche cells in 3D hydrogel devices for 24 hr, and then incubated with 1 μM nilotinib (NIL, Cayman Chemical), 1 μM prednisone (PRE, Sigma), and 0.1 μM vincristine (VCR, Sigma) for 48 hr. The cell viability was quantitatively determined by using Calcein-AM (Thermo Fischer Scientific) and DAPI, which respectively stained the live and dead cells. Briefly, cells were rinsed thrice with PBS and incubated with Calcein-AM and DAPI ([…] and 5 μg/mL in PBS or medium) solution for 30 min at 37° C., followed by a final rinse with PBS. Afterward, cells were observed under a fluorescence microscope, and cellular viability was quantitatively measured by counting the number of objects in the green (live cells) and red (dead cells) channels. Untreated groups of B-ALL cells were used as controls to benchmark the drug resistance of different groups.

CC[C@]1(O)C[C@H]2CN(CCc3c([nH]c4ccccc34)[C@@](C(=O)OC)(c3cc4c(cc3OC)N(C=O)[C@H]3[C@@](O)(C(=O)OC)[C@H](OC(C)=O)[C@]5(CC)C=CCN6CC[C@]43[C@@H]65)C2)C1 [vincristine]
chemotherapy sensitivity (chemo-resistance) of REH versus SUP BM niches [1]: SUP B-ALL co-cultured with niche cells showing more resistant to VCR than REH co-cultured with niche cells | REH viability / chemo-resistance with hematopoietic cells (REH B-ALL blasts): hematopoietic cells also promoted NF-κB activation in B-ALL cells and chemo-resistance to VCR treatment | viability of B-ALL cells in perivascular versus endosteal niche (murine Ph+ B-ALL cells; 2-day treatment): a stronger dormancy and chemo-resistance of B-ALL cells in the endosteal niche | B-ALL eradication (viability) (murine Ph+ B-ALL cells; absence of niche cells, 48 hr): efficient B-ALL eradication | B-ALL drug-induced cell death (chemo-resistance) (murine Ph+ B-ALL cells; 48 hr): chemo-resistance phenomenon was confirmed | B-ALL drug-induced cell death (chemo-resistance) (murine Ph+ B-ALL cells; 48 hr, listed as VCR): partial rescue of drug-induced cell death
